Values joined by “and” are separate entries in the source; they are usually repeats but may differ in a detail not shown here. Equal entries are not always repeated. Structures can show the parent of a compound that is named as a salt. Where two headings read alike, the source gives them in different places. Marks after values point to notes of the source that are not given here.
Experiments:
[1] = tested on: white blood cell number, red blood cell number, platelet number; experiment: Evaluation of blood cell number in mouse; assay type: in vivo; conditions: oral, Day 2 after administration
Outline: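 Male ICR mice dosed orally at 1, 10, 50 or 100 mg/kg (suspension in 0.5% methylcellulose/0.02% citric acid/water); whole blood collected on Day 2. White cell, red cell and platelet counts per unit volume by automated haematology analyser, expressed as % of mean of untreated control group.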

[2] = tested on: Gad1 H3K4me2 level in rat primary culture neurons; experiment: Gad1 H3K4 methylation induction activity in rat primary culture neurons (ChIP-qPCR); assay type: cell-based; conditions: control without compound = 100%; for activity at 1 µM / activity at 10 µM: Rattus norvegicus, Neuron, 72 h; for activity at 1 µM: read-out: Gad1 H3K4me2 induction activity (%), compound 1 μM, 3 days, rat primary culture neurons; for activity at 10 µM: read-out: Gad1 H3K4me2 induction activity (%), compound 10 μM, 3 days, rat primary culture neurons; for Gad1 H3K4me2 induction activity (%): 3 days, rat primary culture neurons
Protocol: Gad1 H3K4 Methylation Induction Activity in Rat Primary Culture Neurons
Thereafter, the compound was added to final concentrations of 1 or 10 μM, and the cells were further cultured for 3 days. The culture supernatant was aspirated, ice-cold PBS was added, and the cell suspension was collected on ice using CELL SCRAPER (IWAKI). […] (750 μL). Furthermore, 0.3% NP40/cell lysis buffer 1 (750 μL) was added, and the cells were lysed by incubating for 5 min on ice.
Using the DNA obtained by the chromatin immunoprecipitation as a template, quantitative PCR of the Gad1 gene upstream genomic region was performed, and the measurement value was taken as the Gad1 H3K4me2 level. […] The Gad1 H3K4me2 induction by the compound was expressed by the H3K4me2 level when the compound was added, as compared to the H3K4me2 level of the control (without addition of the compound) as 100%.

[3] = Evaluation of hippocampal distribution in mouse; assay type: in vivo; conditions: male ICR mice, 10 mg/kg oral; for concentration at 1 h: 1 hr after administration
Outline: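 Male ICR mice dosed orally at 10 mg/kg as suspension in 0.5% methylcellulose/0.02% citric acid/water. Plasma and hippocampus sampled together at 0.5, 1 or 1.5 h; LC/MS/MS concentrations gave hippocampus/plasma ratio.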

MAO-A enzyme = MAO-A enzyme (Homo sapiens (Human), UniProt P21397); experiment: Measurement of MAO-A inhibitory activity (MAO-Glo Assay); assay type: biochemical
Chain of MAO-A enzyme (P21397 whole entry): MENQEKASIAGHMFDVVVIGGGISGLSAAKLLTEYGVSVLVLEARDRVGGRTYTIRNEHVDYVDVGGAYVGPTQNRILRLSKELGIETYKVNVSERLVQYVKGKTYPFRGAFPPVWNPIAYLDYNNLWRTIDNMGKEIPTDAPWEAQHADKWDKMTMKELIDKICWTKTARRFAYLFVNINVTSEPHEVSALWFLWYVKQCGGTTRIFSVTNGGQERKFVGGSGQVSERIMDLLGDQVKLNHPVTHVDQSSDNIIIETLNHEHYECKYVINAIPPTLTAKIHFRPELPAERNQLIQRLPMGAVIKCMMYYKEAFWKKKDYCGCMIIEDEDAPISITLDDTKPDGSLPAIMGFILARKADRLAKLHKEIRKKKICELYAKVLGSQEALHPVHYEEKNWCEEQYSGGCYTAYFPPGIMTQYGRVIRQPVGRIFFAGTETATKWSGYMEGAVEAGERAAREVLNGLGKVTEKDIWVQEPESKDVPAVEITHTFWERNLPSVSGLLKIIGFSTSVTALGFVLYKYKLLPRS

human LSD1(172-833) = human LSD1(172-833) (Homo sapiens (Human), UniProt O60341); experiment: Measurement of LSD1 inhibitory activity (time-resolved fluorescence, biotin-histone H3 mono methylated K4 peptide); assay type: biochemical
Outline: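 Remaining signal detected by TR-FRET after 60 min with europium anti-histone H3 antibody and streptavidin-XL665 in potassium fluoride/0.1% BSA.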

MAO-B enzyme = MAO-B enzyme (Homo sapiens (Human), UniProt P27338); experiment: Measurement of MAO-B inhibitory activity (MAO-Glo Assay); conditions: read-out: MAO-B IC50 value;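 further: luminescence read-out, compound preincubated 10 min with enzyme then reacted 60 min at room temperature, inhibition relative to enzyme reaction without compound, blank lacking enzyme and compound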
Chain of MAO-B enzyme (P27338 whole entry): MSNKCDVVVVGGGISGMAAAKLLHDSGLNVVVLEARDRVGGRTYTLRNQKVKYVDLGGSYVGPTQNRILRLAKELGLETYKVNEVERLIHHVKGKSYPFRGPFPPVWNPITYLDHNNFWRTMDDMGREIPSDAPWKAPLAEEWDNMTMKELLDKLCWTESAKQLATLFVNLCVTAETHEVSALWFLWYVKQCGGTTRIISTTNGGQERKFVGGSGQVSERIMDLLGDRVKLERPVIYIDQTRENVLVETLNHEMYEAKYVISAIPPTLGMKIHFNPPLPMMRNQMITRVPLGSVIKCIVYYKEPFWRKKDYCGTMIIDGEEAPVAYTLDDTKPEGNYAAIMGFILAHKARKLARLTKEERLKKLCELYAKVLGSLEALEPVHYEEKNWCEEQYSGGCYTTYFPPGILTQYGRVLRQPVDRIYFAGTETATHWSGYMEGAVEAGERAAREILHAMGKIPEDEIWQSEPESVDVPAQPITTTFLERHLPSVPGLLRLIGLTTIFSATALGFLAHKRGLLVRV
Protocol: The MAO-B inhibitory activity evaluation described below followed the protocol of MAO-Glo (registered trademark) Assay of Promega KK.
A test compound dissolved in 4% DMSO was added by 12.5 μL to 25 μL reaction solution (100 mM HEPES (pH 7.5), 5% glycerol, 10% DMSO) containing 400 ng of MAO-B enzyme (Sigma-Aldrich Co. LLC.), and the mixture was reacted at room temperature for 10 min. […] After reaction at room temperature for 60 min, Luciferine detection reagent (Promega KK) (50 μL) was added to terminate the reaction. After reaction at room temperature for 20 min with stirring, the luminescence was measured by Envision (PerkinElmer). The MAO-B inhibitory rate (%) of the test compound was calculated by the following formula. inhibitory rate(%)=(1−(test compound count−blank)÷(control−blank))×100
The count of the MAO-B enzyme reaction mixture under compound non-addition conditions is indicated as control, and the count under compound non-addition and MAO-B enzyme non-addition conditions is indicated as blank.

[4] = hippocampus, read-out: hippocampus concentration (mean)
[5] = plasma, read-out: plasma concentration (mean)
[6] = hippocampus, 0.5 hr after administration, read-out: hippocampus concentration (mean)
[7] = plasma, 0.5 hr after administration, read-out: plasma concentration (mean)

Row | SMILES | platelet number, percentage of compound administration group compared to control group, mean ([1]; 10 mg/kg) | red blood cell number, percentage of compound administration group compared to control group, mean ([1]; 10 mg/kg) | white blood cell number, percentage of compound administration group compared to control group, mean ([1]; 10 mg/kg) | platelet number, percentage of compound administration group compared to control group, mean ([1]; 100 mg/kg) [%] | red blood cell number, percentage of compound administration group compared to control group, mean ([1]; 100 mg/kg) [%] | white blood cell number, percentage of compound administration group compared to control group, mean ([1]; 100 mg/kg) [%] | activity at 1 µM [2] [%] | activity at 10 µM [2] [%] | other results
1 | Cn1cc(NC(=O)c2cccc([C@@H]3C[C@H]3NCC3CC3)c2)cn1 (relative stereo) [Example 59, 3-(trans-2-((cyclopropylmethyl)amino)cyclopropyl)-N-(1-methyl-1H-pyrazol-4-yl)benzamide dihydrochloride] | 91.9% | 101.1% | 128.1% | 91.2 | 93.3 | 98.8 | 206 | 161 | 
2 | Cc1nnc(NC(=O)c2cccc([C@@H]3C[C@H]3NCC3CC3)c2)s1 (relative stereo) [Example 96, 3-(trans-2-((cyclopropylmethyl)amino)cyclopropyl)-N-(5-methyl-1,3,4-thiadiazol-2-yl)benzamide hydrochloride] |  |  |  | 102.4 | 100.7 | 65.5 | 122 | 151 | concentration at 1 h [3, 4]: 602 ng/g; concentration at 1 h [3, 5]: 1060 ng/mL; platelet number, percentage of compound administration group compared to control group, mean ([1]; 1 mg/kg): 100.9^b %; red blood cell number, percentage of compound administration group compared to control group, mean ([1]; 1 mg/kg): 107.4^b %; white blood cell number, percentage of compound administration group compared to control group, mean ([1]; 1 mg/kg): 116.6^b %; platelet number, percentage of compound administration group compared to control group, mean ([1]; 10 mg/kg, hydrochloride): 102.1% and 101.0^c %; red blood cell number, percentage of compound administration group compared to control group, mean ([1]; 10 mg/kg, hydrochloride): 97.9% and 102.6^c %; white blood cell number, percentage of compound administration group compared to control group, mean ([1]; 10 mg/kg, hydrochloride): 61.5% and 122.4^c %
3 | O=C(NC1CC(F)(F)C1)c1cccc([C@@H]2C[C@H]2NCC2CC2)c1 (relative stereo) [Example 99, 3-(trans-2-((cyclopropylmethyl)amino)cyclopropyl)-N-(3,3-difluorocyclobutyl)benzamide hydrochloride] | 116.9% | 102.8% | 66.0% | 111.1 | 101.5 | 79.4 | 174 | 181 | concentration at 1 h [3, 4]: 283 ng/g; concentration at 1 h [3, 5]: 143 ng/mL
4 | CCn1cc(NC(=O)c2cccc([C@@H]3C[C@H]3NCC3CC3)c2)cn1 (relative stereo) [Example 101, 3-(trans-2-((cyclopropylmethyl)amino)cyclopropyl)-N-(1-ethyl-1H-pyrazol-4-yl)benzamide dihydrochloride] | 107.9% | 99.2% | 121.8% | 108.9 | 98.5 | 100.4 | 128 | 135 | concentration at 0.5 h [3, 6]: 181 ng/g; concentration at 0.5 h [3, 7]: 907 ng/mL
5 | Cc1cc(NC(=O)c2cccc([C@@H]3C[C@H]3NCC3CC3)c2)no1 (relative stereo) [Example 103, 3-(trans-2-((cyclopropylmethyl)amino)cyclopropyl)-N-(5-methyl-1,2-oxazol-3-yl)benzamide hydrochloride] | 88.7% | 95.0% | 100.9% | 96.8 | 98.5 | 105.9 | 139 | 134 | concentration at 1 h [3, 4]: 1030 ng/g; concentration at 1 h [3, 5]: 375 ng/mL
6 | Cn1cc(NC(=O)c2cccc([C@@H]3C[C@H]3NCC(C)(C)C)c2)cn1 (relative stereo) [Example 155, 3-(trans-2-((2,2-dimethylpropyl)amino)cyclopropyl)-N-(1-methyl-1H-pyrazol-4-yl)benzamide dihydrochloride] |  |  |  |  |  |  | 104 | 106 | 
7 | Cc1nnc(NC(=O)c2cccc([C@@H]3C[C@H]3NC3CCC(F)(F)CC3)c2)s1 (relative stereo) [Example 166, 3-(trans-2-((4,4-difluorocyclohexyl)amino)cyclopropyl)-N-(5-methyl-1,3,4-thiadiazol-2-yl)benzamide dihydrochloride] |  |  |  |  |  |  | 98 | 147 | 
8 | Cc1nnc(NC(=O)c2ccc(C)c([C@@H]3C[C@H]3NC3CCOCC3)c2)s1 (relative stereo) [Example 184, 4-methyl-N-(5-methyl-1,3,4-thiadiazol-2-yl)-3-(trans-2-(tetrahydro-2H-pyran-4-ylamino)cyclopropyl)benzamide dihydrochloride] |  |  |  |  |  |  | 136 | 122 | 
9 | O=C(NC1CC(F)(F)C1)c1ccc(F)c([C@@H]2C[C@H]2NCC2CC2)c1 (relative stereo) [Example 240, 3-(trans-2-((cyclopropylmethyl)amino)cyclopropyl)-N-(3,3-difluorocyclobutyl)-4-fluorobenzamide hydrochloride] | 90.7% | 95.5% | 82.3% | 94.7 | 98.7 | 109.4 |  |  | concentration at 0.5 h [3, 6]: 329 ng/g; Kp at 0.5 h ([3]; hippocampus/plasma, 0.5 hr after administration, read-out: hippocampus/plasma concentration ratio (mean)): 1.31; concentration at 0.5 h [3, 7]: 247 ng/mL; IC50 (MAO-A enzyme): > 10 µM; IC50 (human LSD1(172-833)): < 0.1 µM; IC50 (MAO-B enzyme): > 10 µM
10 | Cc1nnc(NC(=O)c2cccc(C3CC3NCC3CC3)c2)s1 (single isomer, unassigned) [Example 97, 3-(trans-2-((cyclopropylmethyl)amino)cyclopropyl)-N-(5-methyl-1,3,4-thiadiazol-2-yl)benzamide hydrochloride (Optical Isomer, Retention Time Short)] | 105.2^c % | 105.0^c % | 100.7^c % |  |  |  |  |  | platelet number, percentage of compound administration group compared to control group, mean ([1]; 1 mg/kg): 99.4^b %; red blood cell number, percentage of compound administration group compared to control group, mean ([1]; 1 mg/kg): 102.7^b %; white blood cell number, percentage of compound administration group compared to control group, mean ([1]; 1 mg/kg): 114.4^b %; Gad1 H3K4me2 induction activity (%) ([2]; compound 1 μM): 100%; Gad1 H3K4me2 induction activity (%) ([2]; compound 10 μM): 111%
11 | Cc1nnc(NC(=O)c2cccc(C3CC3NCC3CC3)c2)s1 (single isomer, unassigned) [Example 98, 3-(trans-2-((cyclopropylmethyl)amino)cyclopropyl)-N-(5-methyl-1,3,4-thiadiazol-2-yl)benzamide hydrochloride (Optical Isomer, Retention Time Long)] | 102.0^c % | 105.6^c % | 106.5^c % |  |  |  | 114 |  | platelet number, percentage of compound administration group compared to control group, mean ([1]; 1 mg/kg): 105.4^b %; red blood cell number, percentage of compound administration group compared to control group, mean ([1]; 1 mg/kg): 103.6^b %; white blood cell number, percentage of compound administration group compared to control group, mean ([1]; 1 mg/kg): 96.5^b %; Gad1 H3K4me2 induction activity (%) ([2]; compound 10 μM): 133%
